Test results: patent US12655387B2, “Hair follicle primordia and method for producing same” (National University Corporation Yokohama National University, priority 2019, dated 2026)

Tested on: epithelial cells and mesenchymal cells (hair follicle germ)
Experiment: co-culture of epithelial cells and mesenchymal cells in culture solution with dispersed additive; formation of hair shaft-like structure in hair follicle germ
Assay type: cell-based, C57BL/6 mouse
Conditions: for formation of hair follicle germ having a hair shaft-like structure: up to day 8 of culture
Method: A dorsal skin tissue was collected from a C57BL/6 mouse embryo at embryonic day 18, and was subjected to dispase treatment by a partially modified version of a method reported by […]. (Koh-ei Toyoshima et al. Nature Communications, 3, 784, 2012) at 4° C. under the shaking condition of 30 rpm for 1 hour to separate the epithelial layer and mesenchymal layer of the skin tissue. After that, the epithelial layer was treated with 100 U/mL collagenase for 1 hour and 20 minutes and further treated with trypsin for 10 minutes to isolate epithelial cells. In addition, the mesenchymal layer was treated with 100 U/mL collagenase for 1 hour and 20 minutes to isolate mesenchymal cells.
In example 1-1, the epithelial cells and the mesenchymal cells were co-cultured using a culture solution containing laminin, entactin, and type IV collagen. First, DMEM/F12 medium (Advanced Dulbecco's Modified Eagle Medi um/Ham's F-12, GIBCO® containing 1% GLUTAMAX® Supplement (L-glutamine supplement in […], GIBCO® and 0.2% NORMOCIN® (antimicrobial agent, INVIVOGEN®) was prepared as the culture solution.
Then, the epithelial cells and the mesenchymal cells in such amounts as to achieve a cell density of 5×10^3 cells/mL each (such amounts as to achieve a total cell density of 1×10^4 cells/mL) were suspended in the culture solution, and MATRIGEL® (MATRIGEL® Basement Membrane Matrix, CORNING®) in such an amount as to achieve a concentration of 1 v/v % was further added to prepare a cell suspension.
The Matrigel product used contained 10.6 mg/mL (protein amount measured by the Lowry method) of a soluble basement membrane matrix extracted from an Engelbreth-Holm-Swarm (EHS) mouse tumor, and a compositional ratio in the basement membrane matrix was as follows: 56% of laminin, 8% of entactin, and 31% of type IV collagen.
100 μL of the cell suspension was placed in each well of a 96-well plate (Prime surface (trademark), Sumitomo Bakelite Co., Ltd.) to inoculate the epithelial cells and the mesenchymal cells. […]

laminin
formation of hair shaft-like structure in hair follicle germ (1 v/v % of product at inoculation, day 8 of culture (examples 5-1, 5-2, 5-3, 6)): had no hair shaft-like structure formed therein | formation of hair follicle germ having a hair shaft-like structure (example C1-1: 5 v/v % of product (39 to 41 μg/mL laminin)): a hair follicle germ having a hair shaft-like structure was not formed | formation of hair follicle germ having a hair shaft-like structure (example C1-2: 10 v/v % of product (78 to 82 μg/mL laminin)): a hair follicle germ having a hair shaft-like structure was not formed
